Patent US8921364B2, “Modulators of calcium release-activated calcium channel” (Rhizen Pharmaceuticals SA, priority 2009, dated 2014)
pIC50: −log10 of the molar value. Structures can show the parent of a compound that is named as a salt.

These molecules were tested against CRAC channels (Homo sapiens (Human), UniProt Q96D31) (assay: In-vitro CRAC channel inhibition assay in Jurkat cells (thapsigargin-induced calcium influx)). Details: not given.
Chain of CRAC channels (Q96D31 whole entry): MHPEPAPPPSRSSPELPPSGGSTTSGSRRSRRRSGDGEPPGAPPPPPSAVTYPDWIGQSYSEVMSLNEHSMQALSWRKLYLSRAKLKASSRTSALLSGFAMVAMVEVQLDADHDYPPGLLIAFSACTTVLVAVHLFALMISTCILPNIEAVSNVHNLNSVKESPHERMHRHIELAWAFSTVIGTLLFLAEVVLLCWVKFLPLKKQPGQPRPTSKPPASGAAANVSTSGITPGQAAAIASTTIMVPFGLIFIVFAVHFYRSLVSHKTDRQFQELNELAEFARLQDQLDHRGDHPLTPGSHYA
Type: cell-based
Procedure: Inhibition of CRAC channels was determined following thapsigargin (Sigma, Cat # T9033) induced endoplasmic calcium release in Jurkat cells. […] Cells were centrifuged and re-suspended in equal volumes ° f Ca^2+ and Mg^2+ free Hanks buffer and Fluo-8 NW dye (ABD Bioquest, Inc., Sunnyvale, Calif.) loading solution at 2×10^5 cells/100 μl/well in 96-well black plate. Plate is incubated at 37° C., 5% CO2 for 30 min followed by further 15 min incubation at room temperature. Test compounds (DMSO stocks diluted in Ca^2+ and Mg^2+ free Hanks buffer) at desired concentrations were added to the wells and incubated for […] Thapsigargin (1 μM final concentration) was added to the wells and incubated for 15 min to inhibit the Sarco-endoplasmic reticulum Ca^2+ ATPase pump thereby depleting endoplasmic calcium and raising cytosolic calcium concentrations. Store-operated calcium entry was initiated by adding extracellular Ca^2+ to a final concentration of 1.8 mM. Fluorescence was monitored over […] on a plate reader (BMG Labtech., Germany) with excitation at 485 nm and an emission wavelength at 520 nm. Data were analyzed using GraphPad Prism. IC50 for each compound was determined based on the percent inhibition of thapsigargin-induced calcium influx into cells.
In the case of `Cc1oncc1C(=O)Nc1ccc(-n2nc(C3CC3)cc2C2CC2)cc1` [Example 4, N-[4-(3,5-dicyclopropyl-1H-pyrazol-1-yl)phenyl]-5-methylisoxazole-4-carboxamide], the pIC50 was 6.59.

Same assay, conditions: Jurkat cells, 1 uM, thapsigargin-induced calcium influx
In the case of “N-{4-[3-cyclopropyl-5-(difluoromethyl)-1H-pyrazol-1-yl]-3-fluorophenyl}-2,6-difluorobenzamide and N-{4-[5-cyclopropyl-3-(difluoromethyl)-1H-pyrazol-1-yl]-3-fluorophenyl}-2,6-difluorobenzamide [Example 135]”, the “% inhibition (1 uM)” value was 100%. With `Cc1ncccc1C(=O)Nc1ccc(-n2nc(C(F)(F)F)cc2C2CC2)nc1.Cl` [Example 112, N-{6-[5-cyclopropyl-3-(trifluoromethyl)-1H-pyrazol-1-yl]pyridin-3-yl}-2-methyl nicotinamide hydrochloride] the “% inhibition (1 uM)” value was 36.44%.

Same assay, conditions: Jurkat cells, thapsigargin-induced calcium influx
Work on `Cc1ncsc1C(=O)Nc1ccc(-n2nc(C(F)(F)F)cc2CF)cc1` [Example 125, N-{4-[5-(fluoromethyl)-3-(trifluoromethyl)-1H-pyrazol-1-yl]phenyl}-4-methylthiazole-5-carboxamide] yielded a pIC50 of 6.43. `Cc1nnsc1C(=O)Nc1ccc(-n2nc(C3CC3)cc2C2CC2)c(F)c1` [Example 28, N-[4-(3,5-dicyclopropyl-1H-pyrazol-1-yl)-3-fluorophenyl]-4-methyl-1,2,3-thiadiazole-5-carboxamide] showed a pIC50 of 7.22. `O=C(Nc1c(F)cccc1F)c1ccc(-n2nc(C(F)(F)F)cc2C2CC2)c(F)c1` [Example 100, 4-[5-cyclopropyl-3-(trifluoromethyl)-1H-pyrazol-1-yl]-N-(2,6-difluorophenyl)-3-fluorobenzamide] gave a pIC50 of 7.00. For `Cc1nnsc1C(=O)Nc1ccc(-n2nc(C(F)(F)F)cc2C2CC2)cc1` [Example 52, N-{4-[5-cyclopropyl-3-(trifluoromethyl)-1H-pyrazol-1-yl]phenyl}-4-methyl-1,2,3-thiadiazole-5-carboxamide], the pIC50 was 6.74. `O=C(Nc1ccc(-n2nc(C3CC3)cc2C2CC2)c(F)c1)c1c(F)cccc1F` [Example 33, N-[4-(3,5-dicyclopropyl-1H-pyrazol-1-yl)-3-fluorophenyl]-2,6-difluorobenzamide] gave a pIC50 of 6.84. `O=C(Nc1c(F)cccc1F)c1ccc(-n2nc(C(F)(F)F)cc2C2CC2)cc1` [Example 79, 4-[5-cyclopropyl-3-(trifluoromethyl)-1H-pyrazol-1-yl]-N-(2,6-difluorophenyl)benzamide] showed a pIC50 of 6.91. `O=C(Nc1c(F)cccc1F)c1ccc(-n2nc(C(F)(F)F)cc2C2CC2)nc1` [Example 122, 6-[5-cyclopropyl-3-(trifluoromethyl)-1H-pyrazol-1-yl]-N-(2,6-difluorophenyl) nicotinamide] gave a pIC50 of 7.14. `Cc1ncncc1NC(=O)Nc1ccc(-n2nc(C(F)(F)F)cc2C2CC2)c(F)c1` [Example 97, 1-{4-[5-cyclopropyl-3-(trifluoromethyl)-1H-pyrazol-1-yl]-3-fluorophenyl}-3-(4-methylpyrimidin-5-yl)urea] showed a pIC50 of 6.22. Molecule `O=C(Nc1ccc(-n2nc(C3CC3)cc2C2CC2)cc1)c1c(Cl)cncc1Cl` [Example 17, 3,5-dichloro-N-(4-(3,5-dicyclopropyl-1H-pyrazol-1-yl)phenyl)isonicotinamide] has a pIC50 of 6.89. In the case of `Cc1ccccc1C(=O)Nc1ccc(-n2nc(C3CC3)cc2C2CC2)cc1` [Example 7, N-[4-(3,5-dicyclopropyl-1H-pyrazol-1-yl)phenyl]-2-methylbenzamide], the pIC50 was 7.44. `O=C(Nc1ccc(-n2nc(C3CC3)cc2C2CC2)cc1)c1ccncc1F` [Example 16, N-[4-(3,5-dicyclopropyl-1H-pyrazol-1-yl)phenyl]-3-fluoroisonicotinamide] showed a pIC50 of 6.61. `Cc1ccccc1C(=O)Nc1ccc(-n2nc(C(F)(F)F)cc2C2CC2)nc1` [Example 104, N-{6-[5-cyclopropyl-3-(trifluoromethyl)-1H-pyrazol-1-yl]pyridin-3-yl}-2-methylbenzamide] gave a pIC50 of 7.64. `O=C(Nc1ccc(-n2nc(C(F)(F)F)cc2C2CC2)nc1)c1c(F)cccc1F` [Example 108, N-{6-[5-cyclopropyl-3-(trifluoromethyl)-1H-pyrazol-1-yl]pyridin-3-yl}-2,6-difluorobenzamide] showed a pIC50 of 7.30. `O=C(Nc1ccc(-n2nc(C(F)(F)F)cc2C2CC2)cc1)c1ccncc1F` [Example 67, N-{4-[5-cyclopropyl-3-(trifluoromethyl)-1H-pyrazol-1-yl]phenyl}-3-fluoroisonicotinamide] showed a pIC50 of 7.69. For `O=C(Nc1ccc(-n2nc(C(F)(F)F)cc2C2CC2)nc1)c1cccc(F)c1F` [Example 107, N-{6-[5-cyclopropyl-3-(trifluoromethyl)-1H-pyrazol-1-yl]pyridin-3-yl}-2,3-difluorobenzamide], the pIC50 was 7.15. With `Cc1oncc1C(=O)Nc1ccc(-n2nc(C(F)(F)F)cc2C2CC2)cc1` [Example 56, N-{4-[5-cyclopropyl-3-(trifluoromethyl)-1H-pyrazol-1-yl]phenyl}-5-methylisoxazole-4-carboxamide] the pIC50 was 7.20. `O=C(Nc1ccc(-n2nc(C(F)(F)F)cc2C2CC2)c(F)c1)c1cccc(F)c1F` [Example 87, N-{4-[5-cyclopropyl-3-(trifluoromethyl)-1H-pyrazol-1-yl]-3-fluorophenyl}-2,3-difluorobenzamide] was tested, and the pIC50 was 7.49. In the case of `O=C(Nc1ccc(-n2nc(C(F)(F)F)cc2C2CC2)nc1)c1cccnc1` [Example 111, N-{6-[5-cyclopropyl-3-(trifluoromethyl)-1H-pyrazol-1-yl]pyridin-3-yl}nicotinamide hydrochloride], the pIC50 was 7.33. Molecule `Cc1ncsc1C(=O)Nc1ccc(-n2nc(C(F)(F)F)cc2C2CC2)c(F)c1` [Example 83, N-{4-[5-cyclopropyl-3-(trifluoromethyl)-1H-pyrazol-1-yl]-3-fluorophenyl}-4-methylthiazole-5-carboxamide] has a pIC50 of 7.32. In the case of `O=C(Nc1ccc(-n2nc(C(F)(F)F)cc2C2CC2)nc1)c1ccccc1F` [Example 106, N-(6-(5-cyclopropyl-3-(trifluoromethyl)-1H-pyrazol-1-yl)pyridin-3-yl)-2-fluorobenzamide], the pIC50 was 7.22. Molecule `O=C(Cc1ccccn1)Nc1ccc(-n2nc(C3CC3)cc2C2CC2)cc1` [Example 22, N-[4-(3,5-dicyclopropyl-1H-pyrazol-1-yl)phenyl]-2-(pyridin-2-yl)acetamide hydrochloride] has a pIC50 of 6.01. `O=C(Nc1ccc(-n2nc(C(F)(F)F)cc2C2CC2)nc1)c1ccncc1F` [Example 114, N-{6-[5-cyclopropyl-3-(trifluoromethyl)-1H-pyrazol-1-yl]pyridin-3-yl}-3-fluoroisonicotinamide] showed a pIC50 of 7.43. In the case of `Cc1oncc1C(=O)Nc1ccc(-n2nc(C(F)(F)F)cc2C2CC2)c(F)c1` [Example 84, N-{4-[5-cyclopropyl-3-(trifluoromethyl)-1H-pyrazol-1-yl]-3-fluorophenyl}-5-methylisoxazole-4-carboxamide], the pIC50 was 7.68. Molecule `Cc1nnsc1C(=O)Nc1ccc(-n2nc(C3CC3)cc2C2CC2)cc1` [Example 1, N-[4-(3,5-dicyclopropyl-1H-pyrazol-1-yl)phenyl]-4-methyl-1,2,3-thiadiazole-5-carboxamide] has a pIC50 of 7.20. Work on `Cc1ccccc1C(=O)Nc1ccc(-n2nc(C(F)(F)F)cc2C2CC2)cc1` [Example 60, N-{4-[5-cyclopropyl-3-(trifluoromethyl)-1H-pyrazol-1-yl]phenyl}-2-methylbenzamide] yielded a pIC50 of 6.92.
